Test results from patent US8962574B2 (Boehringer Ingelheim International GmbH, priority 2008, dated 2015).

Assays:
[1] = tested on: patients with chronic atrial fibrillation; assay: PETRO phase 2 12-week dose finding study; assay type: in vivo, human; details: 12 weeks
Text: Primary endpoints were bleeding events and changes in D-dimer. […] Minor bleeding was dose related.

[2] = tested on: patients with atrial fibrillation at risk of stroke; assay: RELY Clinical Trial, dabigatran 110 mg or 150 mg twice daily versus warfarin; assay type: in vivo
Text: The primary study outcome was stroke or systemic embolism. The primary safety outcome was major hemorrhage. Secondary outcomes were stroke, systemic embolism and death. […] All other bleeding was considered minor.
All analyses were based on intention-to-treat.

[3] = tested on: activated partial thromboplastin time (aPTT), ecarin clotting time, and thrombin clotting time; assay: Coagulation tests
[4] = tested on: patients with atrial fibrillation
Protocol: PETRO-Ex began while the PETRO study was ongoing and investigators were initially kept blinded to patient treatment group until PETRO was completed. Unblinding investigators to patient treatment was possible thereafter.
Data were summarized descriptively; no hypothesis was to be tested. Events were analyzed on the basis of the treatment at onset. Incidences were reported as number of patients with events as well as normalized to 100 patient-years on the respective treatment.
Written, informed consent was obtained from all patients.
Patients who completed PETRO on 50 mg b.i.d. were switched to 150 mg q.d. upon entry in the PETRO-Ex study (N=93 patients). […] Patients who were down titrated to 50 mg q.d. based on a glomerular filtration rate ≦50 mL/min during PETRO were excluded from the long-term trial; patients down-titrated in other dose levels remained on the q.d. treatment at that dose.
The total exposure reflects both trials, PETRO and PETRO-Ex, together.

[5] = of the 16 on treatment cases with AST or ALT >3×ULN

SMILES: [H]/N=C(/N)c1ccc(NCc2nc3cc(C(=O)N(CCC(=O)O)c4ccccn4)ccc3n2C)cc1 [dabigatran]
- Change in D-dimer levels [1]: comparable to warfarin
- Rate of hemorrhagic stroke ([2]; 110 mg b.i.d.): 0.12 % per year
- Rate of net benefit-risk outcome (major vascular events, major bleeding and death) ([2]; 110 mg b.i.d.): 7.37 % per year
- Stroke, systemic embolism, pulmonary embolism, myocardial infarction death or major bleed (net benefit), Rate ([2]; 110 mg b.i.d.): 7.37 /100 Person Years
- First Hospitalization, RR ([2]; 110 mg vs. Warfarin): 0.92
- Non-disabling Stroke Modified Rankin 0-2, RR ([2]; 110 mg vs. Warfarin): 0.87
- Stroke or systemic embolism, RR ([2]; 110 mg vs. Warfarin): 0.91
- Stroke, Hemorrhagic, RR ([2]; 110 mg vs. Warfarin): 0.31
- Stroke, RR ([2]; 110 mg vs. Warfarin): 0.92
- Stroke, systemic embolism, pulmonary embolism, myocardial infarction death or major bleed (net benefit), RR ([2]; 110 mg vs. Warfarin): 0.92
- Rate of hemorrhagic stroke ([2]; 150 mg b.i.d.): 0.10 % per year
- Rate of net benefit-risk outcome (major vascular events, major bleeding and death) ([2]; 150 mg b.i.d.): 7.22 % per year
- Stroke, systemic embolism, pulmonary embolism, myocardial infarction death or major bleed (net benefit), Rate ([2]; 150 mg b.i.d.): 7.22 /100 Person Years
- Stroke, Ischemic or Unspecified, RR ([2]; 150 mg vs. 110 mg): 0.68
- Stroke, RR ([2]; 150 mg vs. 110 mg): 0.70
- Stroke, systemic embolism, pulmonary embolism, myocardial infarction death or major bleed (net benefit), RR ([2]; 150 mg vs. 110 mg): 0.98
- First Hospitalization, RR ([2]; 150 mg vs. Warfarin): 0.97
- Non-disabling Stroke Modified Rankin 0-2, RR ([2]; 150 mg vs. Warfarin): 0.62
- Stroke or systemic embolism, RR ([2]; 150 mg vs. Warfarin): 0.66
- Stroke, Hemorrhagic, RR ([2]; 150 mg vs. Warfarin): 0.26
- Stroke, Ischemic or Unspecified, RR ([2]; 150 mg vs. Warfarin): 0.76
- Stroke, RR ([2]; 150 mg vs. Warfarin): 0.64
- Stroke, systemic embolism, pulmonary embolism, myocardial infarction death or major bleed (net benefit), RR ([2]; 150 mg vs. Warfarin): 0.90
- Prolongation of aPTT, ecarin clotting time, and thrombin clotting time [3]: dose dependent prolongation
- Fatal bleeding events, rate ([4]; all doses): 0.5 % per year
- LFT abnormality resolved after stopping, number of cases [4, 5]: 5
- LFT abnormality resolved with continuation, number of cases [4, 5]: 10
- Cases with an explanatory clinical diagnosis, number ([4]; of the 18 cases with AST or ALT >3×ULN): 9
